Measurements published in patent US12378231B2, “Small molecules as monoacylglycerol lipase (MAGL) inhibitors, compositions and use thereof” (APOGEE PHARMACEUTICALS, INC., priority 2023, dated 2025).
Where two headings read alike, the source gives them in different places.

Columns and labels:
human recombinant MAGL = human recombinant MAGL (Homo sapiens (Human), UniProt Q99685); experiment: In vitro inhibition of human recombinant MAGL activity (Cayman inhibitor screening kit, 4-nitrophenylacetate hydrolysis); format: biochemical
Excerpt: The inhibitory effect of the synthetic chemicals on activity of human recombinant MAGL was studied using commercial inhibitor screening kit (Cayman Chemical). […] The absorbance of the yellow product can be analyzed using the plate reader. […]

human recombinant FAAH = human recombinant FAAH (Homo sapiens (Human), UniProt O00519); experiment: In vitro inhibition of human recombinant FAAH activity (Cayman FAAH inhibitor screening kit, AMC arachidonoyl amide hydrolysis); format: biochemical
Excerpt: In brief, FAAH hydrolyzes AMC arachidonoyl amide resulting in the release of the fluorescent product, while the inhibitor will inhibit the FAAH activity and thus reduce the fluorescent signal.

[1] = human recombinant MAGL, read-out: Inhibition on MAGL activity (IC50)

Sequence of human recombinant MAGL (Q99685 whole entry): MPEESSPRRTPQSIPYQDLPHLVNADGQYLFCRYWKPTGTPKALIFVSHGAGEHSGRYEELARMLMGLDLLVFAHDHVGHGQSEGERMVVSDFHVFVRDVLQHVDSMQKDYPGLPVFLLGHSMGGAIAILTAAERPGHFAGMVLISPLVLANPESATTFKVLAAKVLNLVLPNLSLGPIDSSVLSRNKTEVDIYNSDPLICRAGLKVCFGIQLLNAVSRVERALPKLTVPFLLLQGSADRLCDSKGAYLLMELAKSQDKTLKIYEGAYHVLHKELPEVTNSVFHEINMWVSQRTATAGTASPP
Sequence of human recombinant FAAH (O00519 whole entry): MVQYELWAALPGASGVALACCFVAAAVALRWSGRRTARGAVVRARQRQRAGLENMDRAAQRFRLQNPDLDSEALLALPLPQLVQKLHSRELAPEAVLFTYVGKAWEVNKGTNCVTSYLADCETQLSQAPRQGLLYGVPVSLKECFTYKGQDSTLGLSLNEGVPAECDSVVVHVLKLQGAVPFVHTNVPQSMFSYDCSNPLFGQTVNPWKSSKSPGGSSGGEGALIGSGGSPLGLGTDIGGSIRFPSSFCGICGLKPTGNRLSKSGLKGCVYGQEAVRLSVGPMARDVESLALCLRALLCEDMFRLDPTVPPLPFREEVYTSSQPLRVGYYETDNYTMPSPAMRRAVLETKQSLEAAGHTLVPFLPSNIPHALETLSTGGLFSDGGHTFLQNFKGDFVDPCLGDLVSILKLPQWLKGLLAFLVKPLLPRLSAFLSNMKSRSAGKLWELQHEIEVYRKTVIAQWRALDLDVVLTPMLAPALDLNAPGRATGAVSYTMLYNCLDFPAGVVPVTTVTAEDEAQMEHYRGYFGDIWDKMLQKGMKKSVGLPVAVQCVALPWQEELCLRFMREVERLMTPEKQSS

SMILES | IC50 (human recombinant MAGL; [1]) | IC50 (human recombinant FAAH) | IC50 (human recombinant MAGL)
COc1ccc(C(c2ccc(OC)nc2)N2CCN(C(=O)n3cnc(C#N)n3)CC2)cn1 [Example 114, 1-(4-(bis(6-methoxypyridin-3-yl)methyl)piperazine-1-carbonyl)-1H-1,2,4-triazole-3-carbonitrile] | 1 to 10 nM | ~10000 nM | –
N#Cc1ncn(C(=O)N2CCN(C(c3ccc(-n4cccn4)cc3)c3ccc(-n4cccn4)cc3)CC2)n1 [Example 116, 1-(4-(bis(4-(1H-pyrazol-1-yl)phenyl)methyl)piperazine-1-carbonyl)-1H-1,2,4-triazole-3-carbonitrile] | 1 to 10 nM | 10000 to 50000 nM | –
N#Cc1ncn(C(=O)N2CCN(C(c3ccc4occc4c3)c3ccc4occc4c3)CC2)n1 [Example 117, 1-(4-(di(benzofuran-5-yl)methyl)piperazine-1-carbonyl)-1H-1,2,4-triazole-3-carbonitrile] | 1 to 10 nM | 100 to 1000 nM | –
COc1ccc(C(c2ccc3c(c2)COCO3)N2CCN(C(=O)n3cnc(C#N)n3)CC2)cn1 (stereo not shown) [Example 118, 1-(4-((4H-benzo[d][1,3]dioxin-6-yl)(6-methoxypyridin-3-yl)methyl)piperazine-1-carbonyl)-1H-1,2,4-triazole-3-carbonitrile] | 1 to 10 nM | ~10000 nM | –
N#Cc1ncn(C(=O)N2CCN(C(c3ccc(-n4cccn4)cc3)c3ccc4c(c3)COCO4)CC2)n1 (stereo not shown) [Example 120, 1-(4-((4-(1H-pyrazol-1-yl)phenyl)(4H-benzo[d][1,3]dioxin-6-yl)methyl)piperazine-1-carbonyl)-1H-1,2,4-triazole-3-carbonitrile] | 1 to 10 nM | > 50000 nM | –
N#Cc1ccc2c(c1)nnn2C(=O)N1CCN(C(c2ccc(F)cc2)c2ccc(F)cc2)CC1 [Example 121, 1-(4-(bis(4-fluorophenyl)methyl)piperazine-1-carbonyl)-1H-benzo[d][1,2,3]triazole-5-carbonitrile] | 1 to 10 nM | ~100 nM | –
Cn1ncc2cc(C(=C3CCN(C(=O)n4nnc5ccccc54)CC3)c3ccc4c(cnn4C)c3)ccc21 [Example 122, (1H-benzo[d][1,2,3]triazol-1-yl)(4-(bis(1-methyl-1H-indazol-5-yl)methylene)piperidin-1-yl)methanone] | 10 to 100 nM | ~50000 nM | –
Cn1ncc2cc(C(=C3CCN(C(=O)n4cnc(C#N)n4)CC3)c3ccc4c(cnn4C)c3)ccc21 [Example 123, 1-(4-(bis(1-methyl-1H-indazol-5-yl)methylene)piperidine-1-carbonyl)-1H-1,2,4-triazole-3-carbonitrile] | 1 to 10 nM | ~10000 nM | –
N#Cc1ncn(C(=O)N2CCC(=C(c3ccc4c(c3)COCO4)c3ccc4c(c3)COCO4)CC2)n1 [Example 124, 1-(4-(bis(4H-benzo[d][1,3]dioxin-6-yl)methylene)piperidine-1-carbonyl)-1H-1,2,4-triazole-3-carbonitrile] | 1 to 10 nM | 1000 to 10000 nM | –
N#Cc1ncn(C(=O)N2CC3CC(=C(c4ccc5c(c4)COCO5)c4ccc5c(c4)COCO5)CC3C2)n1 (stereo not drawn) [Example 125, meso-1-(5-(bis(4H-benzo[d][1,3]dioxin-6-yl)methylene)octahydrocyclopenta[c]pyrrole-2-carbonyl)-1H-1,2,4-triazole-3-carbonitrile] | 1 to 10 nM | 1000 to 10000 nM | –
N#Cc1ncn(C(=O)N2CC3(CC(=C(c4ccc5c(c4)COCO5)c4ccc5c(c4)COCO5)C3)C2)n1 [Example 126, 1-(6-(bis(4H-benzo[d][1,3]dioxin-6-yl)methylene)-2-azaspiro[3.3]heptane-2-carbonyl)-1H-1,2,4-triazole-3-carbonitrile] | 1 to 10 nM | 1000 to 10000 nM | –
N#Cc1ncn(C(=O)N2C3CCC2CC(=C(c2ccc4c(c2)COCO4)c2ccc4c(c2)COCO4)C3)n1 [Example 127, 1-(3-(bis(4H-benzo[d][1,3]dioxin-6-yl)methylene)-8-azabicyclo[3.2.1]octane-8-carbonyl)-1H-1,2,4-triazole-3-carbonitrile] | – | > 50000 nM | 1 to 10 nM
N#Cc1ncn(C(=O)N2CCCC(=C(c3ccc4c(c3)COCO4)c3ccc4c(c3)COCO4)CC2)n1 [Example 128, 1-(4-(bis(4H-benzo[d][1,3]dioxin-6-yl)methylene)azepane-1-carbonyl)-1H-1,2,4-triazole-3-carbonitrile] | 1 to 10 nM | 1000 to 10000 nM | –
N#Cc1ncn(C(=O)N2CCC(C(c3ccc4c(c3)COCO4)c3ccc4c(c3)COCO4)CC2)n1 [Example 129, 1-(4-(bis(4H-benzo[d][1,3]dioxin-6-yl)methyl)piperidine-1-carbonyl)-1H-1,2,4-triazole-3-carbonitrile] | 1 to 10 nM | 1000 to 10000 nM | –
N#Cc1ncn(C(=O)N2C3CCC2CC(C(c2ccc4c(c2)COCO4)c2ccc4c(c2)COCO4)C3)n1 (stereo not shown) [Example 130, 1-(3-(bis(4H-benzo[d][1,3]dioxin-6-yl)methyl)-8-azabicyclo[3.2.1]octane-8-carbonyl)-1H-1,2,4-triazole-3-carbonitrile] | – | > 50000 nM | 1 to 10 nM
O=C(Nc1cnccc1Cl)N1CCN(Cc2ccc3c(c2)OC(F)(F)O3)CC1 [JNJ-42165279, reference compound] | > 50000 nM | 106 nM | –
O=C(Nc1cccnn1)N1CCC(=Cc2cccc(Oc3ccc(C(F)(F)F)cn3)c2)CC1 [PF-04457845, reference compound] | > 10000 nM | 1.9 nM | –
